25 molecules from ChEMBL document CHEMBL4406886, “Discovery of arylamide-5-anilinoquinazoline-8-nitro derivatives as VEGFR-2 kinase inhibitors: Synthesis, in vitro biological evaluation and molecular docking” (Bioorg Med Chem Lett, 2019) can be followed below.

Activity calls are given as the source filed them. The calls are words filed in the database; no cut-off is given here.

The target of test [1] is Epidermal growth factor receptor (Homo sapiens) (UniProt P00533). The experiment in a line: Inhibition of EGFR (unknown origin) at 1 uM using poly (Glu,Tyr) 4:1 as substrate measured after 1 hr in presence of ATP by spectrophotometric analysis relative to control.
Test [2] relates to HUVEC. Put plainly: Antiproliferative activity against human HUVEC cells expressing VEGFR2 assessed as cell growth inhibition measured after 48 hrs by MTT assay. Format: functional, cell-based.
Test [3] has as its system HepG2. The experiment in a line: Antiproliferative activity against human HepG2 cells expressing VEGFR2 assessed as cell growth inhibition measured after 48 hrs by MTT assay. The class given is functional, cell-based. The following applies: HepG2, 48 h.
The subject of test [4] is A549. The experiment in a line: Antiproliferative activity against human A549 cells expressing EGFR assessed as cell growth inhibition measured after 48 hrs by MTT assay. Format: functional, cell-based. Conditions: A549, 48 h.
Test [5] has as its system MDA-MB-231. The experiment in a line: Antiproliferative activity against human MDA-MB-231 cells expressing EGFR assessed as cell growth inhibition measured after 48 hrs by MTT assay. The class given is functional, cell-based. The following applies: MDA-MB-231, 48 h.
For test [6], the target named is T1, Vascular endothelial growth factor receptor 2 (Homo sapiens, UniProt P35968). Conditions: at 1 µM.
Description: Inhibition of VEGFR2 (unknown origin) at 1 uM using poly (Glu,Tyr) 4:1 as substrate measured after 1 hr in presence of ATP by spectrophotometric analysis relative to control
In test [7] the test system is L02. The experiment in a line: Cytotoxicity against human LO2 cells. Format: cell-based.
Test [8] concerns Chorioallantoic membrane. The experiment in a line: Antiangiogenic activity in chicken fertilized egg chorioallantoic membrane assessed as decrease in blood vessel growth at 10 nM measured after 48 hrs by microscopic analysis. The class given is functional, tissue-based. The following applies: Gallus gallus.
For test [9], the target named is T1, Vascular endothelial growth factor receptor 2. The experiment in a line: Inhibition of VEGFR2 (unknown origin) using poly (Glu,Tyr) 4:1 as substrate measured after 1 hr in presence of ATP by spectrophotometric analysis.

T1 sequence (P35968 whole entry): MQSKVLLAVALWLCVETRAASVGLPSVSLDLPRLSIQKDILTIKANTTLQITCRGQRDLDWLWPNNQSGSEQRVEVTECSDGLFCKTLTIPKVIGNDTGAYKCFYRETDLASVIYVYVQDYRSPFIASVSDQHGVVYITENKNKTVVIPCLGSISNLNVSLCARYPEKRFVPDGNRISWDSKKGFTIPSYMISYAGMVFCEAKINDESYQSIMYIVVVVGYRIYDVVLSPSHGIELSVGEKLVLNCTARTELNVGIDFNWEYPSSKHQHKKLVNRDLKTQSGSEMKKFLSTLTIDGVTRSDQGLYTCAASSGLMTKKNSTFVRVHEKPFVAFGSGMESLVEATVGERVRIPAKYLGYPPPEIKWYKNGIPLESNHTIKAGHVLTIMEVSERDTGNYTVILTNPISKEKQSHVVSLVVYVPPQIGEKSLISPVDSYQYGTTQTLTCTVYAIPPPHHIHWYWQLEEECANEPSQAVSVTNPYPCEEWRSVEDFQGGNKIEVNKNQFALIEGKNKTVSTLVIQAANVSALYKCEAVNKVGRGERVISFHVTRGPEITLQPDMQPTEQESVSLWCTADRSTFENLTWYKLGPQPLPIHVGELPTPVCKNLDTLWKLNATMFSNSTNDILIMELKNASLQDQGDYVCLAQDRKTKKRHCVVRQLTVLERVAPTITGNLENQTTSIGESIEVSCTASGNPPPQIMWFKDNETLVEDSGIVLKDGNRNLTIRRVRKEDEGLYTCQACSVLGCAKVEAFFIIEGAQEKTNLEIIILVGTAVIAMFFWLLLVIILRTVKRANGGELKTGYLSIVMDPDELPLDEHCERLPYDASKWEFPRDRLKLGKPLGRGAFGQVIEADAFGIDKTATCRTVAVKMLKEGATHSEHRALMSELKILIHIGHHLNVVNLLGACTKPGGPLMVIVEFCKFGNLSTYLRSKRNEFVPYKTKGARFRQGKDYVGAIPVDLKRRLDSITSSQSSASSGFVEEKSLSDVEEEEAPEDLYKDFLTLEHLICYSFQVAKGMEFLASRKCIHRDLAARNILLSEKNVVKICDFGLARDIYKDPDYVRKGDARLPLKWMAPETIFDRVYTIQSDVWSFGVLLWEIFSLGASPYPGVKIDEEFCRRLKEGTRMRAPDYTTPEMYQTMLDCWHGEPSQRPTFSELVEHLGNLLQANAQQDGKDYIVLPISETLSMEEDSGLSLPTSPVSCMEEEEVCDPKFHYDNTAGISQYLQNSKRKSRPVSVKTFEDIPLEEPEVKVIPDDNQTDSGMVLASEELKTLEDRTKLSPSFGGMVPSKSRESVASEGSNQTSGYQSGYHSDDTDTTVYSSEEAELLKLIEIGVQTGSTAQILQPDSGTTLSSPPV
Chain of Epidermal growth factor receptor (Homo sapiens) (P00533 whole entry): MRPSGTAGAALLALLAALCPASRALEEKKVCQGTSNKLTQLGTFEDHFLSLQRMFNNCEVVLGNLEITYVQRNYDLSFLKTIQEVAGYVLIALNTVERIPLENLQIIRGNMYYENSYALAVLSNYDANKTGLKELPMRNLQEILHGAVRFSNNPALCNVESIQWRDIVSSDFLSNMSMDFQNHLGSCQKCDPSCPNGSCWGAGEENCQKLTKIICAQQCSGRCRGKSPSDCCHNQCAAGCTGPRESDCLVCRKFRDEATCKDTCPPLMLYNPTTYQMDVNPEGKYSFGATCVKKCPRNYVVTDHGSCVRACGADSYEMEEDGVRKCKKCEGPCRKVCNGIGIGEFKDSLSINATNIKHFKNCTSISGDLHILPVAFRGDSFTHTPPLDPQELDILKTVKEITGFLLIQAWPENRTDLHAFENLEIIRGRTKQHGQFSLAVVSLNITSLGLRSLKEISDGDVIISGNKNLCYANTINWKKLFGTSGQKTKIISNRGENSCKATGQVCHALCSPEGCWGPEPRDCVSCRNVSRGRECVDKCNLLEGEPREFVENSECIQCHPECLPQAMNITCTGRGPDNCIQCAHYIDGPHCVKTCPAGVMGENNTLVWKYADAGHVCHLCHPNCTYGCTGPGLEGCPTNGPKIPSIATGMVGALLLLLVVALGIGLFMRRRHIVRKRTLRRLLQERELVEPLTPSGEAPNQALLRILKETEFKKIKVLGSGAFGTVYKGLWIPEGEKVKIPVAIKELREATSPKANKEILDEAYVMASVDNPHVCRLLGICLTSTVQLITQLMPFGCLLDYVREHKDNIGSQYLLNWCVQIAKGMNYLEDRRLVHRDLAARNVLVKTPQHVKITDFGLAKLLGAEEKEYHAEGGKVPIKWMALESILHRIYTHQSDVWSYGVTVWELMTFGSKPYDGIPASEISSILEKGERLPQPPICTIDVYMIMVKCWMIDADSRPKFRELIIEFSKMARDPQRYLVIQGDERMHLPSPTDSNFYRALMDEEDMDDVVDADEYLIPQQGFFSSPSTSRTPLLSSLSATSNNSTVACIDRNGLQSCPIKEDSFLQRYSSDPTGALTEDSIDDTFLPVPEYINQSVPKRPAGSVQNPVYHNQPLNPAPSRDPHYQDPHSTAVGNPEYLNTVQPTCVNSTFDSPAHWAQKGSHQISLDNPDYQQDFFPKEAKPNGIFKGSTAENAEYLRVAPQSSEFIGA

As for `O=C(Nc1cccc(Nc2ccc([N+](=O)[O-])c3ncnc(O)c23)c1)c1ccc(F)cc1`, the figures for the inhibition in test [1] and in [6] were 18.5% and 41.9%, respectively. Also, the IC50 was 63.2 µM in test [2], 68.5 µM in test [3], 95 µM in test [4] and more than 100 µM in test [5].
On to `Cc1ccc(C(=O)Nc2ccc(Nc3ccc([N+](=O)[O-])c4ncnc(O)c34)cc2)cc1`, for which the inhibition in test [1] worked out at 57.2%; in test [6] it was 83.7%. The IC50 in test [2] is 14.3 µM; in [3], 18.5 µM; in [4] it was more than 100 µM; in test [5], 94.7 µM; in test [7], 93.2 µM. The result in test [8] was Active.
As to `Cc1cccc(C(=O)Nc2ccc(Nc3ccc([N+](=O)[O-])c4ncnc(O)c34)cc2)c1`, the figures for the inhibition in [1] and in [6] were 37.8% and 58.2%, respectively. Besides, the IC50 in [2] is 47 µM; in test [3], 40.8 µM; in test [4], more than 100 µM; in test [5], more than 100 µM.
`Cc1ccc(C(=O)Nc2cccc(Nc3ccc([N+](=O)[O-])c4ncnc(O)c34)c2)cc1`: the inhibition in [1] amounted to 12.8%; in test [6], 32.7%. Further, the IC50 is 80.5 µM in [2], 74 µM in test [3], more than 100 µM in [4] and more than 100 µM in test [5].
`COc1ccccc1C(=O)Nc1cccc(Nc2ccc([N+](=O)[O-])c3ncnc(O)c23)c1`: the inhibition turned out to be 12.4% in test [1] and 26.9% in [6]. The IC50 in [2] is 82 µM; in [3] it was 90.3 µM; in test [4] it was more than 100 µM; in test [5], more than 100 µM.
`COc1cccc(C(=O)Nc2ccc(Nc3ccc([N+](=O)[O-])c4ncnc(O)c34)cc2)c1`: the inhibition came to 36.7% in test [1] and 47.6% in test [6]. For the same molecule, the IC50 in test [2] is 57.8 µM; in [3], 64.2 µM; in [4] it was more than 100 µM; in test [5], more than 100 µM.
For the molecule `O=C(Nc1cccc(Nc2ccc([N+](=O)[O-])c3ncnc(O)c23)c1)c1ccc(Cl)cc1`, the inhibition in test [1] stood at 9.4%; in [6], 38.5%. In addition, the IC50 was 73.8 µM in test [2], 76.3 µM in test [3], more than 100 µM in test [4] and more than 100 µM in test [5].
Take `O=C(Nc1ccc(Nc2ccc([N+](=O)[O-])c3ncnc(O)c23)cc1)c1cccc(F)c1`: the values for the inhibition in [1] and in test [6] were 36.9% and 69.4%, respectively. In addition, the IC50 was 38.9 µM in test [2], 36.1 µM in test [3], 83.3 µM in [4] and more than 100 µM in [5]. For the same molecule, the outcome in test [8] was Active.
As to `O=C(Nc1cccc(Nc2ccc([N+](=O)[O-])c3ncnc(O)c23)c1)c1cccc(Cl)c1`, the inhibition in test [1] turned out to be 26.3%; in [6] it was 29.2%. Further, the IC50 was 86.5 µM in test [2], 93 µM in [3], more than 100 µM in [4] and more than 100 µM in test [5].
Take `O=C(Nc1ccc(Nc2ccc([N+](=O)[O-])c3ncnc(O)c23)cc1)c1ccccc1F`: the values for the inhibition in [1] and in test [6] were 42.1% and 73.8%, respectively. Besides, the IC50 in test [2] came to 23.8 µM; in [3] it was 21 µM; in test [4] it was 85.8 µM; in test [5] it was 93.2 µM. Also, the outcome in test [8] was Active.
Turning to `COc1ccccc1C(=O)Nc1ccc(Nc2ccc([N+](=O)[O-])c3ncnc(O)c23)cc1`, the inhibition was found to be 43.6% in test [1] and 60.3% in [6]. Besides, the IC50 was 36.3 µM in test [2], 40.7 µM in test [3], more than 100 µM in [4] and 95.8 µM in test [5].
Turning to `O=C(Nc1cccc(Nc2ccc([N+](=O)[O-])c3ncnc(O)c23)c1)c1ccccc1`, the values for the inhibition in test [1] and in [6] were 15.4% and 37.8%, respectively. For the same molecule, the IC50 is 79.1 µM in test [2], 75.2 µM in test [3], more than 100 µM in test [4] and more than 100 µM in test [5].
`O=C(Nc1cccc(Nc2ccc([N+](=O)[O-])c3ncnc(O)c23)c1)c1ccccc1Cl`: the inhibition came to 22.5% in test [1] and 30.1% in [6]. The IC50 is 74.6 µM in test [2], 71.9 µM in test [3], more than 100 µM in [4] and more than 100 µM in [5].
With `Cc1ccccc1C(=O)Nc1ccc(Nc2ccc([N+](=O)[O-])c3ncnc(O)c23)cc1`, the inhibition in [1] was 41.7%; in test [6], 65.8%. Besides, the IC50 was 37.2 µM in [2], 30.1 µM in [3], 91.6 µM in test [4] and more than 100 µM in [5].
In the case of `Cc1cccc(C(=O)Nc2cccc(Nc3ccc([N+](=O)[O-])c4ncnc(O)c34)c2)c1`, the figures for the inhibition in test [1] and in test [6] were 11.3% and 18%, respectively. Moreover, the IC50 in [2] is 93.6 µM; in [3] it was more than 100 µM; in [4], more than 100 µM; in test [5] it was more than 100 µM.
As for `CNC(=O)c1cc(Oc2ccc(NC(=O)Nc3ccc(Cl)c(C(F)(F)F)c3)cc2)ccn1` [SORAFENIB], the IC50 in test [2] came to 4.1 µM; in test [3], 3.6 µM; in test [4] it was 8.1 µM; in [5], 15.8 µM; in test [7], 72.9 µM. The result in test [8] was Active.
On to `O=C(Nc1cccc(Nc2ccc([N+](=O)[O-])c3ncnc(O)c23)c1)c1ccccc1F`, for which the inhibition in test [1] stood at 17.2%; in [6], 35.8%. In addition, the IC50 in [2] is 70.4 µM; in test [3] it was 69.6 µM; in [4], more than 100 µM; in test [5] it was more than 100 µM.
Turning to `Cc1ccccc1C(=O)Nc1cccc(Nc2ccc([N+](=O)[O-])c3ncnc(O)c23)c1`, the inhibition in test [1] worked out at 6.4%; in test [6], 21.6%. The IC50 in test [2] was 89.6 µM; in test [3] it was 90.3 µM; in test [4], more than 100 µM; in test [5], more than 100 µM.
With `Cc1ccc(C(=O)Nc2ccc(CN3CCN(C)CC3)c(C(F)(F)F)c2)cc1C#Cc1cnc2cccnn12` [PONATINIB], the IC50 in [2] stood at 0.5 µM; in test [3] it was 0.6 µM; in test [4] it was 5.3 µM; in [5], 10.5 µM; in [7], 64.7 µM.
On to `O=C(Nc1cccc(Nc2ccc([N+](=O)[O-])c3ncnc(O)c23)c1)c1cccc(F)c1`, for which the inhibition in test [1] came out at 27.3%; in test [6], 38.1%. Moreover, the IC50 in test [2] was 74.2 µM; in test [3] it was 72.1 µM; in test [4] it was more than 100 µM; in [5] it was more than 100 µM.
`O=C(Nc1ccc(Nc2ccc([N+](=O)[O-])c3ncnc(O)c23)cc1)Nc1cc(C(F)(F)F)ccc1Cl`: the values for the inhibition in test [1] and in test [6] were 21.8% and 102%, respectively. The IC50 in test [2] is 2.1 µM; in test [3], 13.7 µM; in test [4] it was more than 100 µM; in test [5], more than 100 µM; in test [7], 84.2 µM; in test [9], 0.0154 µM.
Take `O=C(Nc1ccc(Nc2ccc([N+](=O)[O-])c3ncnc(O)c23)cc1)c1ccccc1`: the inhibition in test [1] turned out to be 53.8%; in test [6], 92.4%. Moreover, the IC50 in [2] was found to be 5.7 µM; in test [3], 7.41 µM; in test [4] it was 87.4 µM; in test [5], 86.3 µM; in [7], 65.3 µM; in test [9] it was 0.735 µM. Further, the outcome in test [8] was Active.
In the case of `O=C(Nc1ccc(Nc2ccc([N+](=O)[O-])c3ncnc(O)c23)cc1)c1cccc(Cl)c1`, the inhibition is 27.7% in test [1] and 63.2% in [6]. The IC50 was 36.7 µM in test [2], 42 µM in [3], more than 100 µM in [4] and more than 100 µM in [5]. In addition, the outcome in test [8] was Active.
Take `O=C(Nc1ccc(Nc2ccc([N+](=O)[O-])c3ncnc(O)c23)cc1)c1ccc(Cl)cc1`: the inhibition in test [1] turned out to be 64.1%; in test [6] it was 97.9%. Further, the IC50 in test [2] came out at 1.6 µM; in test [3], 0.9 µM; in [4], 83 µM; in test [5], 95.1 µM; in test [7], 73.5 µM; in test [9], 0.363 µM. For the same molecule, the outcome in test [8] was Active.
Take `O=C(Nc1ccc(Nc2ccc([N+](=O)[O-])c3ncnc(O)c23)cc1)c1ccccc1Cl`: the figures for the inhibition in [1] and in test [6] were 50.3% and 76.9%, respectively. Moreover, the IC50 is 26.5 µM in test [2], 28 µM in test [3], 90.3 µM in [4] and 96.1 µM in [5]. For the same molecule, the result in test [8] was Active.
